Experimental data reported in ChEMBL document CHEMBL4622979, “Non-rigid Diarylmethyl Analogs of Baloxavir as Cap-Dependent Endonuclease Inhibitors of Influenza Viruses” (J Med Chem, 2020).

What was measured:
[1] = Ratio of AUClast in CD1 mouse brain to plasma assessed as (12aR)-12-(Diphenylmethyl)-7-hydroxy-3,4,12,12a-tetrahydro-1H-[1,4]oxazino[3,4-c]pyrido[2,1-f ][1,2,4]triazine-6,8-dione level at 15 mg/kg, po administered as single dose measured up to 24 hrs by LC-MS/MS analysis; format: ADME, organism-based
[2] = AUClast in CD1 mouse plasma assessed as (12aR)-12-(Diphenylmethyl)-7-hydroxy-3,4,12,12a-tetrahydro-1H-[1,4]oxazino[3,4-c]pyrido[2,1-f ][1,2,4]triazine-6,8-dione level at 15 mg/kg, po administered as single dose measured up to 24 hrs by LC-MS/MS analysis; format: ADME, organism-based; set-up: dose 15 mg/kg, time < 24 hr, route oral; settings: in vivo
[3] = MRTlast in CD1 mouse brain assessed as (12aR)-12-(Diphenylmethyl)-7-hydroxy-3,4,12,12a-tetrahydro-1H-[1,4]oxazino[3,4-c]pyrido[2,1-f ][1,2,4]triazine-6,8-dione level at 15 mg/kg, po administered as single dose measured up to 24 hrs by LC-MS/MS analysis; format: ADME, organism-based; settings: in vivo
[4] = Stability in rat plasma assessed as parent compound remaining at 1 uM measured after 4 hrs by LC-MS/MS analysis; format: ADME, cell-free; settings: read-out: Stability
[5] = AUClast in CD1 mouse lung assessed as (12aR)-12-(Diphenylmethyl)-7-hydroxy-3,4,12,12a-tetrahydro-1H-[1,4]oxazino[3,4-c]pyrido[2,1-f ][1,2,4]triazine-6,8-dione level at 15 mg/kg, po administered as single dose by LC-MS/MS analysis; format: ADME, organism-based; settings: in vivo
[6] = Half life in CD1 mouse liver assessed as (12aR)-12-(Diphenylmethyl)-7-hydroxy-3,4,12,12a-tetrahydro-1H-[1,4]oxazino[3,4-c]pyrido[2,1-f ][1,2,4]triazine-6,8-dione level at 15 mg/kg, po administered as single dose measured up to 24 hrs by LC-MS/MS analysis; format: ADME, organism-based; settings: in vivo
[7] = Ratio of AUClast in CD1 mouse spleen to plasma assessed as (12aR)-12-(Diphenylmethyl)-7-hydroxy-3,4,12,12a-tetrahydro-1H-[1,4]oxazino[3,4-c]pyrido[2,1-f ][1,2,4]triazine-6,8-dione level at 15 mg/kg, po administered as single dose measured up to 24 hrs by LC-MS/MS analysis; format: ADME, organism-based; settings: other tissue
[8] = Oral bioavailability in CD1 mouse assessed as (12aR)-12-(Diphenylmethyl)-7-hydroxy-3,4,12,12a-tetrahydro-1H-[1,4]oxazino[3,4-c]pyrido[2,1-f ][1,2,4]triazine-6,8-dione level at 15 mg/kg administered as single dose by LC-MS/MS analysis; format: ADME, organism-based; settings: in vivo
[9] = Half life in CD1 mouse trachea assessed as (12aR)-12-(Diphenylmethyl)-7-hydroxy-3,4,12,12a-tetrahydro-1H-[1,4]oxazino[3,4-c]pyrido[2,1-f ][1,2,4]triazine-6,8-dione level at 15 mg/kg, po administered as single dose measured up to 24 hrs by LC-MS/MS analysis; format: ADME, organism-based; settings: in vivo
[10] = Half life in CD1 mouse muscle assessed as (12aR)-12-(Diphenylmethyl)-7-hydroxy-3,4,12,12a-tetrahydro-1H-[1,4]oxazino[3,4-c]pyrido[2,1-f ][1,2,4]triazine-6,8-dione level at 15 mg/kg, po administered as single dose measured up to 24 hrs by LC-MS/MS analysis; format: ADME, organism-based, Muscle tissue; settings: in vivo
[11] = Ratio of AUClast in CD1 mouse lung to plasma assessed as (12aR)-12-(Diphenylmethyl)-7-hydroxy-3,4,12,12a-tetrahydro-1H-[1,4]oxazino[3,4-c]pyrido[2,1-f ][1,2,4]triazine-6,8-dione level at 15 mg/kg, po administered as single dose measured up to 24 hrs by LC-MS/MS analysis; format: ADME, organism-based; settings: other tissue
[12] = Cmax in CD1 mouse lung assessed as (12aR)-12-(Diphenylmethyl)-7-hydroxy-3,4,12,12a-tetrahydro-1H-[1,4]oxazino[3,4-c]pyrido[2,1-f ][1,2,4]triazine-6,8-dione level at 15 mg/kg, po administered as single dose by LC-MS/MS analysis; format: ADME, organism-based; set-up: dose 15 mg/kg, route oral; settings: in vivo
[13] = Tmax in CD1 mouse spleen assessed as (12aR)-12-(Diphenylmethyl)-7-hydroxy-3,4,12,12a-tetrahydro-1H-[1,4]oxazino[3,4-c]pyrido[2,1-f ][1,2,4]triazine-6,8-dione level at 15 mg/kg, po administered as single dose measured up to 24 hrs by LC-MS/MS analysis; format: ADME, organism-based; settings: in vivo
[14] = Ratio of AUClast in CD1 mouse liver to plasma assessed as baloxavir acid level at 15 mg/kg, po administered as single dose measured up to 24 hrs by LC-MS/MS analysis; format: ADME, organism-based; settings: other tissue
[15] = Half life in CD1 mouse plasma assessed as baloxavir acid level at 15 mg/kg, po administered as single dose measured up to 24 hrs by LC-MS/MS analysis; format: ADME, organism-based; settings: in vivo
[16] = AUCinfinity in CD1 mouse kidney assessed as baloxavir acid level at 15 mg/kg, po administered as single dose measured up to 24 hrs by LC-MS/MS analysis; format: ADME, organism-based; set-up: dose 15 mg/kg, time infinity, route oral; settings: in vivo
[17] = AUCinfinity in CD1 mouse heart assessed as baloxavir acid level at 15 mg/kg, po administered as single dose measured up to 24 hrs by LC-MS/MS analysis; format: ADME, organism-based; set-up: dose 15 mg/kg, time infinity, route oral; settings: in vivo
[18] = Cmax in CD1 mouse brain assessed as baloxavir acid level at 15 mg/kg, po administered as single dose measured up to 24 hrs by LC-MS/MS analysis; format: ADME, organism-based; set-up: dose 15 mg/kg, route oral; settings: in vivo
[19] = Half life in CD1 mouse heart assessed as baloxavir acid level at 15 mg/kg, po administered as single dose measured up to 24 hrs by LC-MS/MS analysis; format: ADME, organism-based; settings: in vivo
[20] = Ratio of AUClast in CD1 mouse blood to plasma assessed as baloxavir acid level at 15 mg/kg, po administered as single dose measured up to 24 hrs by LC-MS/MS analysis; format: ADME, organism-based; settings: in vivo
[21] = Ratio of AUClast in CD1 mouse small intestine to plasma assessed as baloxavir acid level at 15 mg/kg, po administered as single dose measured up to 24 hrs by LC-MS/MS analysis; format: ADME, organism-based; settings: other tissue
[22] = Tmax in CD1 mouse kidney assessed as baloxavir acid level at 15 mg/kg, po administered as single dose measured up to 24 hrs by LC-MS/MS analysis; format: ADME, organism-based; settings: in vivo
[23] = Elimination rate constant in CD1 mouse plasma assessed as baloxavir acid level at 15 mg/kg, po administered as single dose measured up to 24 hrs by LC-MS/MS analysis; format: ADME, organism-based; settings: in vivo
[24] = MRTlast in CD1 mouse small intestine assessed as baloxavir acid level at 15 mg/kg, po administered as single dose measured up to 24 hrs by LC-MS/MS analysis; format: ADME, organism-based; settings: in vivo
[25] = AUCinfinity in CD1 mouse small intestine assessed as baloxavir acid level at 15 mg/kg, po administered as single dose measured up to 24 hrs by LC-MS/MS analysis; format: ADME, organism-based; set-up: dose 15 mg/kg, route oral, time infinity; settings: in vivo
[26] = Elimination rate constant in CD1 mouse lung assessed as baloxavir acid level at 15 mg/kg, po administered as single dose measured up to 24 hrs by LC-MS/MS analysis; format: ADME, organism-based; settings: in vivo

In the case of `COC(=O)OCOc1c2n(ccc1=O)N(C(c1ccccc1)c1ccccc1)[C@@H]1COCCN1C2=O`, the “Ratio AUC” value [1] was 0.19, the AUClast [2] was 3.287 µg·h/mL and the MRTlast [3] was 3.33 h. For the same molecule, the remaining at 4 h, 1 µM [4] was 0%, the AUClast [5] was 11923 ng·h/g and the t1/2 [6] was 2.34 h. The “Ratio AUC” value [7] was 1.38, the F [8] was 62.1% and the t1/2 [9] was 4.91 h. The t1/2 [10] was 1.71 h, the “Ratio AUC” value [11] was 2.53 and the Cmax [12] was 1882 ng/g. It also gave a Tmax [13] of 0.5 h.
For `COC(=O)OCOc1c2n(ccc1=O)N([C@@H]1c3ccccc3SCc3c1ccc(F)c3F)[C@@H]1COCCN1C2=O` [BALOXAVIR MARBOXIL], the “Ratio AUC” value [14] was 189, the t1/2 [15] was 3.8 h and the AUC [16] was 21287 ng·h/g. For the same molecule, the AUC [17] was 9025 ng·h/g, the Cmax [18] was 21.9 ng/g and the t1/2 [19] was 3.4 h. The “Ratio AUC” value [20] was 3.05, the “Ratio AUC” value [21] was 234 and the Tmax [22] was 2 h. The Kel [23] was 0.18 h⁻¹, the MRTlast [24] was 1.58 h and the AUC [25] was 106028 ng·h/g. It also gave a Kel [26] of 0.2 h⁻¹.
